Measurements from US20100035822A1, “PROLINE-RICH PEPTIDES, PHARMACEUTICAL COMPOSITION, USE OF ONE OR MORE PEPTIDES AND METHOD OF TREATMENT” (priority 2006, published 2010).

Legend:
[1] = target: T1, argininosuccinate synthase (AsS) (Mus musculus, UniProt P16460); experiment: Affinity chromatography of mouse kidney extract on peptide column; identification of the bound protein; assay type: binding; conditions: affinity column with SEQ ID NO 7 as ligand; crude mouse kidney extract
T1 construct: Cytosolic and membrane fractions of the renal extract (100 mg/ml total protein) were applied to separate columns; from tissue; host or cells: Balb-c mouse kidney, cytosolic and membrane fractions
T1 sequence (P16460 1-412): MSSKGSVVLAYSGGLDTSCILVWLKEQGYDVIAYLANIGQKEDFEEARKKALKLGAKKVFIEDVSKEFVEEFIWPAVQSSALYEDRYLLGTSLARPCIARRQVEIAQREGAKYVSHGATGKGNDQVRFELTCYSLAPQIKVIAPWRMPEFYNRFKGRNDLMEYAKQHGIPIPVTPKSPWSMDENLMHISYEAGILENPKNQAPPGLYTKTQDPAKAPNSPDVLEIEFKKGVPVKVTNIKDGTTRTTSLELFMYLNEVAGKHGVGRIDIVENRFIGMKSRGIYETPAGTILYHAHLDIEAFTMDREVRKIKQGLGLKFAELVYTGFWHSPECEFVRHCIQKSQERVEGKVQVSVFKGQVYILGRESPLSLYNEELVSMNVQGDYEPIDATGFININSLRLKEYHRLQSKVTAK
Experimental: Starting material were the cytosolic and plasma membrane crude extracts of mouse kidney cells homogenized in the buffer 10 mM Tris-HCl pH 7.5, 25 mM saccharose, 1 mM EDTA, and 1 mM PMSF (cytosolic fraction), or 1% Triton X-100 (plasma membrane fraction). Supernatants were dialyzed in 0.2 M NaHCO3, 0.5 M NaCl, pH 8.3, and separately applied to the affinity chromatography column Hitrap NHS-activated (GE Healthcare) coupled to 5 mg of peptide SEQ ID NO 7.
Preparing affinity columns. Columns were washed three times with 2 ml 1 mM HCl before homogeneous preparations of SEQ ID NO 7 (5 mg in 1 ml 0.2 M NaHCO3, 0.5 M NaCl, pH 8.3) were applied. After 30 min incubation at room temperature, peptides had been coupled, and the column was inactivated with buffer A (0.5 M ethanolamine, 0.5 M NaCl, pH 8.3), and washed with 0.2 M NaHCO3, 0.5 M NaCl, pH 8.3, and stored at 4° C. in 50 mM Na2HPO4, 0.1%, NaN3, pH 7.0. The columns were called HiTrap-SEQ. ID NO 7. […]
Affinity chromatography and analysis of the retained proteins by SDS-PAGE. […] Protein concentration (mg/ml) was determined by the method of Bradford (Bradford, M. M. A rapid and sensitive method for the quantitation of microgram quantities of protein utilizing the principle of protein-dye binding. Anal. Biochem. 72: 248-254, 1976) with the Protein Assay reagent from BioRad. […]

C6 cells from rat glioma = experiment: NO production in C6 glia cells; assay type: cell-based
Experimental: All reagents for cellular biology experiments were purchased from Invitrogen. C6 cells from rat glioma were cultured in DMEM, supplemented with 10% fetal bovine serum, streptomycin sulphate (100 μg/ml), and penicillin G (100 U/ml). Cultures were kept at 37° C. in 5% CO2 atmosphere. 24 hours before peptides were added, cells were transferred to a 24 well plate (1.5×10^5 cells/ml/well), containing DMEM medium lacking serum. Peptides were added to the cultures to a final concentration of 1 μM, and incubated for 24 hours at 37° C. in 5% CO2 atmosphere. The medium was collected and stored at −80° C.
NO concentration was determined in 1 ml of culture medium, which was incubated with N-ethylmaleimide at a final concentration of 10 mM, for 24 hours. The supernatant of a centrifugation at 1.000 rpm was injected in the NOA equipment (Nitric Oxide Analyser-Sievers) for NO quantification.

<ENWPHPQIPP [SEQ ID NO 8]
binding to the approx. 46 kDa protein (AsS) of mouse kidney extract [1]: capable of selectively binding | rank of efficiency in activating nitrite production (C6 cells from rat glioma): the most efficient
